Values of other authors in PMC5601361, “Targeting the Receptor for Advanced Glycation Endproducts (RAGE): A Medicinal Chemistry Perspective” (Journal of Medicinal Chemistry, 2017).
Entries after “also recorded” stand apart in the source; their conditions may differ. Like-named read-outs stand apart in the source and are kept apart here.

Experiments:
APPswe/PS1 mice = details: oral 50 mg/kg per day for up to three months
C6 glioma cells = system: C6 glioma cells; parameters: method as in PMID 22742537; details: in vitro; 3 at 10 μM
human RAGE-Aβ1–42 = details: ELISA on human RAGE-Aβ1–42
human RAGE [1] = target: human RAGE; parameters: method as in PMID 22742537, PMID 24727489; details: SPR
wild-type mice = system: wild-type mice; parameters: method as in PMID 22742537, PMID 24727489; details: given prior to human Aβ administration, 3 ip, 7 iv 25 mg/kg
human sRAGE [2] = target: human sRAGE; parameters: method as in PMID 24824951; details: V domain; read-out: affinity for RAGE (Kd)
[3] = system: LLC and B16 melanoma cells; parameters: method as in PMID 22493510, PMID 21347371; details: single preadministration
human RAGE [4] = target: human RAGE; parameters: method as in PMID 22493510, PMID 21347371; details: SPR on human RAGE
rat and mouse sRAGE = target: rat and mouse sRAGE; parameters: method as in PMID 7592757; details: VC1C2
human sRAGE [5] = target: human sRAGE; parameters: method as in PMID 22406537; details: V domain, read-out: affinity for RAGE (Kd)
[6] = read-out: IC50, interaction of sRAGE to CML
[7] = read-out: IC50, interaction of sRAGE to S110B
[8] = read-out: IC50, interaction of sRAGE to amyloid β

## CCCCOc1cc(OCCCN(CC)CC)ccc1NC(=O)C(CC1CCN(Cc2ccccc2)CC1)NC(=O)OCC1c2ccccc2-c2ccccc21 (stereo not drawn) [Compound 10]
sRAGE; [6]
  IC50: < 500 nM
sRAGE; [7]
  IC50: < 500 nM
sRAGE; [8]
  IC50: < 500 nM

## CCN(CC)CCOc1cccc(Nc2nc(-c3ccc(Cl)cc3)cc(-c3ccc(Cl)cc3)n2)c1 [Compound 3]
APPswe/PS1 mice
  concentration of toxic soluble Aβ in the brain: significantly lowered
C6 glioma cells
  Aβ-induced NF-κB signaling: down-regulation; also recorded: • downregulation of Aβ-induced NF-κB (in vitro)
Human RAGE-Aβ1–42
  IC50: 16500 nM
Human RAGE [1]
  Kd: 102000 nM
wild-type mice; 25 mg/kg
  Aβ brain entry / accumulation in the brain: inhibited Aβ brain entry; also recorded: • inhibition of Aβ accumulation in the brain (in vivo)

## methylglyoxal-derived hydroimidazolones [MG-H]
Human sRAGE [2]
  Kd: 30 to 40 nM

## CC1NC(NCCC[C@H](N)C(=O)O)=NC1=O (stereo partly drawn) [MG-H1, methylglyoxal-derived hydroimidazolone-1]
Human sRAGE [2]
  Kd: 40 nM

## chondroitin sulfate E [Compound 15]
[3]
  lung colonization by tumor cells: suppressed
Human RAGE [4]
  Kd: 0.2 nM

## HMGB1 (amphoterin): high mobility group box 1, cytokine-type RAGE ligand
Rat and mouse sRAGE
  affinity for RAGE (Kd): low nanomolar range
Rat and mouse sRAGE; read-out: affinity for RAGE (Kd)
  Kd: 6 to 10 nM

## β amyloid: β amyloid peptide, RAGE ligand
Human sRAGE [5]; listed as 125I-labeled Aβ1–40
  Kd: 75 nM
Human sRAGE [5]
  Kd: 70 to 80 nM

## CCN(CC)CCOc1ccccc1Nc1nc(-c2ccc(Cl)cc2)cc(-c2ccc(Cl)cc2)n1 [Compound 4]
C6 glioma cells
  Aβ-induced NF-κB signaling: • downregulation of Aβ-induced NF-κB (in vitro)
Human RAGE-Aβ1–42
  IC50: 4600 nM
wild-type mice
  Aβ brain entry / accumulation in the brain: • inhibition of Aβ accumulation in the brain (in vivo)

## CCCCOc1cc(OCCCN(CC)CC)ccc1NC(=O)c1cc(-c2ccc(Oc3ccc(F)cc3)cc2)nn1C [Compound 7]
Human RAGE [1]
  Kd: 43400 nM
wild-type mice
  Aβ brain entry / accumulation in the brain: reduce Aβ entry in the brain

## CCN(CC)CCOc1ccc(OC)cc1NC(=O)c1nc(-c2ccc(F)cc2)cc(-c2ccc(F)cc2)n1 [Compound 6]
Human RAGE-Aβ1–42; at 20 μM
  inhibitory activity compared with another compound: superior RAGE inhibition than 3

## CCCCn1c([C@@H](Cc2ccc(OCCc3ccc(Cl)cc3)cc2)NC(=O)OC(C)(C)C)nc2cc(OCCCN(CC)CC)ccc21 [Compound 11]
sRAGE; [6]
  IC50: < 500 nM
sRAGE; [7]
  IC50: < 500 nM
sRAGE; [8]
  IC50: < 500 nM

## heparan sulfate [Compound 16]
[3]
  lung colonization by tumor cells: suppressed
Human RAGE [4]
  Kd: 0.6 nM
